In US10226464B2, “Small molecule NF-κB inhibitors” (ImmuneTarget, Inc., priority 2015, dated 2019):

Assays:
NF-κB = NF-κB GFP Assay (NFκB/Jurkat/GFP transcriptional reporter cell line); type: cell-based; conditions: Homo sapiens; NF-κB/Jurkat/GFP reporter cells, TNF-α 5 ng/ml, 24 hours; read-out: NF-KB GFP IC50
Procedure: NFκB/Jurkat/GFP transcriptional reporter cell line was obtained from SBI System Biosciences. NF-κB/Jurkat/GFP™ Reporter cells (5×10^5 cells) were plated at a concentration of 1 million cells/ml into each well of a 24-well plate. TNF-α (5 ng/ml) was added. Compounds were added via serial dilutions to corresponding wells. After 24 hours, 100 μl of the cells were transferred to a well of a Costar® UV plate (96 well, No lid, w/ UV Transparent Flat Bottom, Corning, N.Y., Cat#3635) and the intensity of GFP fluorescence was measured (Excitation 485+/−20, Emission 528+/−20) in a Synergy™ HT Multi-Detection Microplate Reader (BioTech, Winooski, Vt.). The intensities of GFP measured were plotted against the […].

c-Rel protein = c-Rel protein (Homo sapiens (Human), UniProt Q04864); assay: Electrophoretic Mobility Shift Assay (EMSA), Rel/NF-κB DNA binding inhibition; conditions: 10 nM c-Rel protein, phosphor-labeled CD28RE oligonucleotide
Chain of c-Rel protein (Q04864 whole entry): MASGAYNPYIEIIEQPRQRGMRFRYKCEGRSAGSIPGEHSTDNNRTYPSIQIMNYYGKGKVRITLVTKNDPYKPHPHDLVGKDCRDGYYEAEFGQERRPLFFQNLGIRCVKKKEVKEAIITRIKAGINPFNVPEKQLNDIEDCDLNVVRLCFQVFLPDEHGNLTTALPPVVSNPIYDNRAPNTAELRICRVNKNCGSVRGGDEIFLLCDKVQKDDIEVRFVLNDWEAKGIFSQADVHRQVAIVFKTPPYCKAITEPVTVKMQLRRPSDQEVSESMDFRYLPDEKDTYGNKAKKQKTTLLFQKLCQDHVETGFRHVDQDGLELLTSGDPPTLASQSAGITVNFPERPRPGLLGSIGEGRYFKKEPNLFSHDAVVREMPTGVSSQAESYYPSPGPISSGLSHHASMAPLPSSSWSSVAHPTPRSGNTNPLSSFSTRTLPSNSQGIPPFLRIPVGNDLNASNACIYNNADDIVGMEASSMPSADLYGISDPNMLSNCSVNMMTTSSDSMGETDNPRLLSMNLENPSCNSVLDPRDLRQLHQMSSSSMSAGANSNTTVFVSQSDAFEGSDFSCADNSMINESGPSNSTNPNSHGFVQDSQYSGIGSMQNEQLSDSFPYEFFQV
Procedure: Electrophoretic Mobility Shift Assay (EMSA)
DNA binding reaction (20 μL) was carried out in 1×DNA Binding Buffer (10 mM Tris, 40 mM NaCl, 1 mM EDTA, 4% glycerol) with 10 nM c-Rel protein and 0.5 ng phosphor-labeled CD28RE oligonucleotide for 10 minutes at room temperature in 96-well plates. Test compounds, in serial dilutions, were added into each well, and further incubated for 15 minutes before loading onto native 5% polyacrylamide gel. Electrophoresis proceeded for 2.5 hours at 160V. Radioactive signals were quantified using Phospho-Imager. IC50 of compounds of example 1 to 75 were determined by quantifying the intensity of Rel/NF-κB inhibition in EMSA using phospho-imager. An example of EMSA data of the present invention is shown for compound 6 in FIG. 2.

IC50 (NF-κB) [µM]	IC50 (c-Rel protein) [µM]	Structure (SMILES)
< 5	< 0.5	CCCCCCCOc1ccc2cc3c(=O)[nH]c(=O)nc-3oc2c1F [Compound 52]
< 20	< 5	O=C(O)CCCCCOc1ccc2cc3c(=O)[nH]c(=O)nc-3oc2c1Cl [Compound 53, 6-((9-chloro-2,4-dioxo-3,4-dihydro-2H-chromeno[2,3-d]pyrimidin-8-yl)oxy)hexanoic acid]
< 20	< 5	O=C(O)CCCOc1ccc2cc3c(=O)[nH]c(=O)nc-3oc2c1Cl [Compound 55]
< 20	< 5	O=C(O)COc1ccc2cc3c(=O)[nH]c(=O)nc-3oc2c1Cl [Compound 56]
< 20	< 5	COC(=O)CCCCOc1ccc2cc3c(=O)[nH]c(=O)nc-3oc2c1Cl [Compound 57]
< 20	< 5	CC(=O)OCCCCCCOc1ccc2cc3c(=O)[nH]c(=O)nc-3oc2c1Cl [Compound 58]
< 20	< 5	CC(=O)OCCCOc1ccc2cc3c(=O)[nH]c(=O)nc-3oc2c1Cl [Compound 59]
< 20	< 5	CC(=O)OCCCCOc1ccc2cc3c(=O)[nH]c(=O)nc-3oc2c1Cl [Compound 60, 4-((9-chloro-2,4-dioxo-3,4-dihydro-2H-chromeno[2,3-d]pyrimidin-8-yl)oxy)butyl acetate]
< 5	< 1	COCCOCCOc1ccc2cc3c(=O)[nH]c(=O)nc-3oc2c1 [Compound 61, 8-(2-(2-methoxyethoxy)ethoxy)-2H-chromeno[2,3-d]pyrimidine-2,4(3H)-dione]
< 5	< 1	COCCOCCOc1ccc2cc3c(=O)[nH]c(=O)nc-3oc2c1Cl [Compound 62]
< 5	< 1	COCCOCCOc1ccc2cc3c(=O)[nH]c(=O)nc-3oc2c1F [Compound 63]
< 5	< 1	COCCOCCOc1cc2oc3nc(=O)[nH]c(=O)c-3cc2cc1Cl [Compound 64]
< 5	< 1	COCCOCCOc1cc2oc3nc(=O)[nH]c(=O)c-3cc2cc1F [Compound 65]
< 5	< 1	COCCCCOc1ccc2cc3c(=O)[nH]c(=O)nc-3oc2c1 [Compound 67]
< 5	< 1	COCCCCOc1ccc2cc3c(=O)[nH]c(=O)nc-3oc2c1F [Compound 68]
< 5	< 1	COCCCCOc1cc2oc3nc(=O)[nH]c(=O)c-3cc2cc1Cl [Compound 69]
< 5	< 1	COCCCCOc1cc2oc3nc(=O)[nH]c(=O)c-3cc2cc1F [Compound 70]
< 5	< 1	COCCOCCCOc1ccc2cc3c(=O)[nH]c(=O)nc-3oc2c1 [Compound 71]
< 5	< 1	COCCOCCCOc1ccc2cc3c(=O)[nH]c(=O)nc-3oc2c1Cl [Compound 72]
< 5	< 1	COCCOCCCOc1ccc2cc3c(=O)[nH]c(=O)nc-3oc2c1F [Compound 73]
< 5	< 1	COCCOCCCOc1cc2oc3nc(=O)[nH]c(=O)c-3cc2cc1Cl [Compound 74]
< 5	< 1	COCCOCCCOc1cc2oc3nc(=O)[nH]c(=O)c-3cc2cc1F [Compound 75, 7-fluoro-8-(3-(2-methoxyethoxy)propoxy)-2H-chromeno[2,3-d]pyrimidine-2,4(3H)-dione]

Structure (SMILES)	IC50 (NF-κB) [µM]	IC50 (c-Rel protein) [µM]
COCCCCOc1ccc2cc3c(=O)[nH]c(=O)nc-3oc2c1Cl [Compound 66, 9-chloro-8-(4-methoxybutoxy)-2H-chromeno[2,3-d]pyrimidine-2,4(3H)-dione]	< 5	< 1
